Several values for one entry are separate records, joined by “and”; a condition that tells them apart may be missing. Equal entries are not always repeated.
What was measured:
[1] = tested on: DIGSA; experiment: Postemergence foliar-applied weed control, direct seeded rice, greenhouse (Example I); type: in vivo, Digitaria sanguinalis (L.) Scop.; conditions: g ae/ha Compound A Acid+g ai/ha carfentrazone-ethyl: r11 4.38+0, r12 8.75+0, r13 17.5+0, r14 0+14, r15 4.38+14, r16 8.75+14, r17 17.5+14
[2] = tested on: ECHCG; experiment: as above; type: in vivo, Echinochloa crusgalli (L.) Beauv.
[3] = tested on: CYPES; experiment: as above; type: in vivo, Cyperus esculentus L.; conditions: g ae/ha Compound A Acid+g ai/ha carfentrazone-ethyl: r27 4.38+0, r28 8.75+0, r29 0+7, r30 0+14, r31 4.38+7, r32 8.75+7, r33 4.38+14, r34 8.75+14
[4] = tested on: LEFCH; experiment: as above; type: in vivo, Leptochloa chinensis (L.) Nees
[5] = tested on: CYPIR; experiment: as above; type: in vivo, Cyperus iria L.; conditions: g ae/ha Compound A Benzyl Ester+g ai/ha carfentrazone-ethyl: r11 8.75+0, r12 0+3.5, r13 0+7, r14 0+14, r15 8.75+3.5, r16 8.75+7, r17 8.75+14
[6] = tested on: ECHOR; experiment: In-water applied weed control, transplanted paddy rice, greenhouse (Example II); type: in vivo, Echinochloa oryzoides (Ard.) Fritsch
[7] = tested on: LEFCH; experiment: as above; type: in vivo, Leptochloa chinensis (L.) Nees
[8] = tested on: IPOHE; experiment: Postemergence foliar-applied weed control, direct seeded rice, greenhouse (Example I); type: in vivo, Ipomoea hederacea Jacq.
[9] = tested on: BRAPP; experiment: as above; type: in vivo, Brachiaria platyphylla (Griseb.) Nash; conditions: g ae/ha Compound A Acid+g ai/ha pyraclonil: r11 4.38+0, r12 0+33.75, r13 0+67.5, r14 0+135, r15 4.38+33.75, r16 4.38+67.5, r17 4.38+135
[10] = tested on: ISCRU; experiment: as above; type: in vivo, Ischaemum rugosum Salisb.
[11] = tested on: ECHCG; experiment: In-water applied weed control, transplanted paddy rice, greenhouse (Example II); type: in vivo, Echinochloa crus-galli (L.) P. Beauv.
[12] = tested on: CYPRO; experiment: as above; type: in vivo, Cyperus rotundus L.
[13] = tested on: ECHCO; experiment: Postemergence foliar-applied weed control, direct seeded rice, greenhouse (Example I); type: in vivo, Echinochloa colona (L.) Link; conditions: g ae/ha Compound A Benzyl Ester+g ai/ha saflufenacil: r14 4.38+0, r15 8.75+0, r16 0+10, r17 0+20, r18 4.38+10, r19 8.75+10, r20 4.38+20, r21 8.75+20

CCOC(=O)C(Cl)Cc1cc(-n2nc(C)n(C(F)F)c2=O)c(F)cc1Cl (stereo not drawn) [Carfentrazone-ethyl, ethyl α,2-dichloro-5-[4-(difluoromethyl)-4,5-dihydro-3-methyl-5-oxo-1H-1,2,4-triazol-1-yl]-4-fluorobenzenepropanoate, reference compound]
Visual Weed Control (%) - 21 DAA DIGSA Obs [1]: 0%
Visual Weed Control (%) - 21 DAA ECHCG Obs ([2]; g ae/ha Compound A Acid+g ai/ha carfentrazone-ethyl: r11 4.38+0, r12 8.75+0, r13 17.5+0, r14 0+14, r15 4.38+14, r16 8.75+14, r17 17.5+14): 10%
Visual Weed Control (%) - 21 DAA ECHCG Obs ([2]; g ae/ha Compound A Benzyl Ester+g ai/ha carfentrazone-ethyl: r11 8.75+0, r12 0+3.5, r13 0+7, r14 0+14, r15 8.75+3.5, r16 8.75+7, r17 8.75+14): 0% and 10%
Visual Weed Control (%) - 21 DAA CYPES Obs [3]: 0%
Visual Weed Control (%) - 19 DAA LEFCH Obs ([4]; g ae/ha Compound A Acid+g ai/ha carfentrazone-ethyl: r39 19.4+0, r40 0+28, r41 19.4+28): 10%
Visual Weed Control (%) - 19 DAA LEFCH Obs ([4]; g ae/ha Compound A n-Butyl Ester+g ai/ha carfentrazone-ethyl: r11 16+0, r12 0+28, r13 16+28): 10%
Visual Weed Control (%) - 21 DAA CYPIR Obs [5]: 0%
Visual Weed Control (%) - 19 DAA ECHOR Obs ([6]; g ae/ha Compound A Acid+g ai/ha carfentrazone-ethyl: r28 42.4+0, r29 0+215, r30 42.4+215): 65%
Visual Weed Control (%) - 21 DAA LEFCH Obs ([7]; g ae/ha Compound A Benzyl Ester+g ai/ha carfentrazone-ethyl: r11 8.75+0, r12 17.5+0, r13 35+0, r14 0+28, r15 8.75+28, r16 17.5+28, r17 35+28): 10%

C#CCN(C)c1c(C#N)cnn1-c1nn2c(c1Cl)CCCC2 [Pyraclonil, 1-(3-chloro-4,5,6,7-tetrahydropyrazolo[1,5-a]pyridin-2-yl)-5-(methyl-2-propynylamino)-1H-pyrazole-4-carbonitrile, reference compound]
Visual Weed Control (%) - 20 DAA ECHCG Obs ([2]; g ae/ha Compound A Acid+g ai/ha pyraclonil: r24 4.38+0, r25 8.75+0, r26 0+33.75, r27 0+67.5, r28 0+135, r29 4.38+33.75, r30 8.75+33.75, r31 4.38+67.5, r32 8.75+67.5, r33 4.38+135, r34 8.75+135): 0%
Visual Weed Control (%) - 21 DAA ECHCG Obs ([2]; g ae/ha Compound A Acid+g ai/ha pyraclonil: r44 17.5+0, r45 35+0, r46 0+270, r47 17.5+270, r48 35+270): 0%
Visual Weed Control (%) - 21 DAA IPOHE Obs ([8]; g ae/ha Compound A Acid+g ai/ha pyraclonil: r53 35+0, r54 0+270, r55 35+270): 45%
Visual Weed Control (%) - 21 DAA IPOHE Obs ([8]; g ae/ha Compound A Benzyl Ester+g ai/ha pyraclonil: r27 17.5+0, r28 35+0, r29 0+270, r30 17.5+270, r31 35+270): 45%
Visual Weed Control (%) - 20 DAA BRAPP Obs [9]: 0%
Visual Weed Control (%) - 21 DAA ISCRU Obs ([10]; g ae/ha Compound A Benzyl Ester+g ai/ha pyraclonil: r37 8+0, r38 16+0, r39 0+67.5, r40 0+135, r41 0+270, r42 8+67.5, r43 16+67.5, r44 8+135, r45 16+135, r46 8+270, r47 16+270): 0%
Visual Weed Control (%) - 20 DAA ECHCG Obs ([11]; g ae/ha Compound A Acid+g ai/ha pyraclonil: r11 8.75+0, r12 17.5+0, r13 0+45, r14 8.75+45, r15 17.5+45): 0%
Visual Weed Control (%) - 20 DAA ECHOR Obs ([6]; g ae/ha Compound A Benzyl Ester+g ai/ha pyraclonil: r11 4.38+0, r12 8.75+0, r13 17.5+0, r14 0+45, r15 4.38+45, r16 8.75+45, r17 17.5+45): 40%
Visual Weed Control (%) - 20 DAA CYPRO Obs ([12]; g ae/ha Compound A Benzyl Ester+g ai/ha pyraclonil: r19 4.38+0, r20 8.75+0, r21 0+45, r22 0+90, r23 4.38+45, r24 8.75+45, r25 4.38+90, r26 8.75+90): 0%

CC(C)N(C)S(=O)(=O)NC(=O)c1cc(-n2c(=O)cc(C(F)(F)F)n(C)c2=O)c(F)cc1Cl [Saflufenacil, 2-chloro-5-[3,6-dihydro-3-methyl-2,6-dioxo-4-(trifluoromethyl)-1(2H)-pyrimidinyl]-4-fluoro-N-[[methyl(1-methylethyl)amino]sulfonyl]benzamide, reference compound]
Visual Weed Control (%) - 20 DAA LEFCH Obs ([4]; g ae/ha Compound A Acid+g ai/ha saflufenacil: r11 4.38+0, r12 8.75+0, r13 17.5+0, r14 0+5, r15 4.38+5, r16 8.75+5, r17 17.5+5): 0%
Visual Weed Control (%) - 20 DAA LEFCH Obs ([4]; g ae/ha Compound A Benzyl Ester+g ai/ha saflufenacil: r26 8.75+0, r27 17.5+0, r28 0+5, r29 0+10, r30 8.75+5, r31 17.5+5, r32 8.75+10, r33 17.5+10): 0%
Visual Weed Control (%) - 20 DAA ECHCO Obs [13]: 40%
Visual Weed Control (%) - 21 DAA ISCRU Obs ([10]; g ae/ha Compound A Benzyl Ester+g ai/ha saflufenacil: r49 8+0, r50 16+0, r51 0+10, r52 0+20, r53 8+10, r54 16+10, r55 8+20, r56 16+20): 0%
Visual Weed Control (%) - 20 DAA ECHCG Obs ([11]; 10 g ai/ha alone): 0%
Visual Weed Control (%) - 20 DAA ECHCG Obs ([11]; 20 g ai/ha alone): 10%
Visual Weed Control (%) - 20 DAA ECHOR Obs ([6]; 10 g ai/ha alone): 0%
Visual Weed Control (%) - 20 DAA ECHOR Obs ([6]; 20 g ai/ha alone): 0%
Visual Weed Control (%) - 20 DAA LEFCH Obs ([7]; 10 g ai/ha alone): 0%
Visual Weed Control (%) - 20 DAA LEFCH Obs ([7]; 20 g ai/ha alone): 0%
Visual Weed Control (%) - 21 DAA LEFCH Obs ([7]; 40 g ai/ha alone): 5%
Visual Weed Control (%) - 20 DAA CYPRO Obs ([12]; 10 g ai/ha alone): 0%

Reference: patent US8916499B2, “Herbicidal compositions comprising 4-amino-3-chloro-5-fluoro-6-(4-chloro-2-fluoro-3-methoxyphenyl) pyridine-2-carboxylic acid or a derivative thereof and a protoporphyrinogen oxidase inhibitor” (Dow AgroSciences LLC, priority 2012, dated 2014)
